Laboratory results from article PMC9297664, “Cationic peptide carriers enable long-term delivery of insulin-like growth factor-1 to suppress osteoarthritis-induced matrix degradation” (Arthritis Research & Therapy, 2022).
“Also recorded” adds a separate entry of the source.

Legend:
[1] = tested on: rat knee joints; conditions: post-IA injection in ACL transected (ACLT) rat knee joints, compared to free IGF-1; cited from earlier work
From the text: The high negative FCD of cartilage resulting from the negatively charged GAGs provides a unique opportunity to make drug cartilage penetrating using cationic carriers.

[2] = parameters: method as in 3 sources, ref 37 = [37]; PMID 24470361; doi:10.1002/art.38357; 37. Loffredo FS Pancoast JR Cai L Vannelli T Dong JZ Lee RT Targeted delivery to cartilage is critical for in vivo efficacy of insulin-like growth factor 1 in a rat model of osteoarthritis Arthritis R ||| ref 42 = [42]; PMID 20722014; doi:10.1002/art.27709; 42. Miller RE Grodzinsky AJ Cummings K Plaas AHK Cole AA Lee RT Intraarticular injection of heparin-binding insulin-like growth factor 1 sustains delivery of insulin-like growth factor 1 to cartilage ||| ref 43 = [43]; PMID 30487252; doi:10.1126/scitranslmed.aat8800; 43. Geiger BC Wang S Padera RF Grodzinsky AJ Hammond PT Cartilage-penetrating nanocarriers improve delivery and efficacy of growth factor treatment of osteoarthritis Sci Transl Med 2018 10 eaat8800 10; conditions: cited from earlier work; for Detection in cartilage samples: rat cartilage, 6 days post-IA injection
[3] = tested on: IL-1 and TNF-α challenged cartilage; conditions: cited from earlier work
From the text: Media was collected and changed every 2 days and IL-1α was replenished with each media change.

[4] = tested on: human OA cartilage explants; parameters: method as in PMID 18050312; conditions: cited from earlier work
[5] = tested on: IL-1α treated cartilage explants; assay: Nitrite release from cartilage to medium (Griess assay); assay type: cell-based, bovine; conditions: IL-1α 2 ng/mL; for Nitrite production: days 2, 8 and 16
Description: (§1) Media was collected and changed every 2 days and IL-1α was replenished with each media change. […] IL-1α is chosen for this in-vitro post-traumatic (PTOA) model as it is elevated during the inflammatory phase following an injury and causes degradation of aggrecans, collagens, inhibits proteoglycan synthesis, and alters chondrocyte viability. 2 ng/mL concentration was chosen as it represents a moderately aggressive cytokine treatment.
Nitrite content was measured using the Griess assay as a marker of nitric oxide (NO) release from cartilage into the medium. Equal volumes of Griess reagent and culture media collected every two days were mixed and incubated at room temperature for 15 min, and absorbance at 540 nm was measured using a microplate reader (Synergy H1, Biotek). Sodium nitrite solution in DMEM was used as a standard to convert absorbance readings to nitrite content in the sample medium.

[6] = tested on: IL-1α treated cartilage explants; assay: Cellular metabolism in cartilage explants (AlamarBlue); assay type: cell-based, bovine; conditions: IL-1α 2 ng/mL, days 8 and 16
Description: as §1
On days 8 and 16 of culture, cellular metabolism in cartilage explants was determined by measuring the metabolic oxidation activity by using AlamarBlue assay. Briefly, cartilage explants were individually incubated with media containing 1× resazurin sodium salt for 3 h in the dark at 37 °C and 5% CO2. Cell metabolic activity was estimated by measuring fluorescence at 530 nm excitation and 590 nm emission wavelengths using a microplate reader (Synergy H1, Biotek).

[7] = tested on: IL-1α treated cartilage explants; assay: GAG loss from cartilage (DMMB), IL-1α-challenged explant culture post-traumatic OA model; assay type: cell-based, bovine; conditions: IL-1α 2 ng/mL
Description: as §1
After 16 days of culture, the cartilage explants were weighed and digested using Proteinase-K solution in Tris buffer at pH 8. The cumulative GAG released to the media and the residual GAG content in the digested tissue explants was measured using DMMB assay. The GAG content was expressed as a percentage of the total GAG content (in media + residual GAG in the digested explant).

[8] = tested on: endplate chondrocytes; conditions: IGF-1 administration; cited from earlier work
[9] = tested on: chondrocytes in IL-1α treated cartilage explants; assay: Chondrocyte viability in cartilage (FDA/PI live-dead staining); assay type: cell-based, bovine; conditions: IL-1α 2 ng/mL, days 8 and 16
Description: as §1
On days 8 and 16 of culture, 100 μm thick slices were cut from the center of cartilage disks as described before. Cartilage slices were stained with FDA (4 mg/ml in PBS) and PI ([…] in PBS) for 5 min. FDA stained viable cells green and PI stained the non-viable cells red. Slices were washed with PBS and imaged using a fluorescence microscope (Nikon Eclipse TS2R) at 4× objective. The viable and non-viable cell images were overlaid using ImageJ.

[10] = Depth of penetration, 1-D transport chamber, confocal imaging, absorption then desorption; assay type: in vitro ADME, bovine
Description: The chamber was placed in a covered petri dish with DI water inside an incubator at 37 °C under gentle shaking. After 24 h, a 100 μm slice was cut from the center of the explant and imaged using a confocal microscope (Zeiss LSM 800). Cy5 (red channel) was excited 640 nm laser and FITC (green channel) was excited using a 488 nm laser. Z-stacks of images from both channels were obtained and maximum intensity along the z-axis was projected. The intensity across the thickness to represent the penetration concentration profile was plotted along a straight line from the superficial to deep zone using FIJI.

[11] = single dose 1000 ng/ml IGF-1 (S), free or as conjugate

PAMAM-IGF-1: IGF-1 carried by polyamidoamine (PAMAM) dendrimer cationic nanoparticles (Gen 6, 58 kDa) [reference compound]
Matrix degradation and osteophyte formation [1]: significantly suppressed matrix degradation and osteophyte formation | Detection in cartilage samples [2]: detected | Duration of bioavailability of IGF-1 in the knee joint space ([2]; rat knee joint space post-IA injection): 30.4 days

IGF-1: Human recombinant insulin-like growth factor-1, ~7.6 kDa pro-anabolic growth factor (PeproTech)
Saturating concentration for suppression of GAG loss ([3]; IL-1 and TNF-α challenged cartilage culture models, multiple dosing): 100 ng/mL | Concentration at which the therapeutic effect saturates (suppression of IL-1α-induced catabolic activity) ([3]; similar cartilage explant culture model): 100 ng/mL | Increase of proteoglycan synthesis ([4]; 3 ng/ml IGF-1, milder degree of OA explants (MANKIN score 4)): 1.8 fold | Enhancement of proteoglycan synthesis ([4]; 30 ng/ml IGF-1, advanced OA cartilage explants (MANKIN score 8)): 2.6 fold | Cumulative nitrite levels ([5]; continuous dose 100 ng/ml (C), 16 days): significantly suppressed the IL-1-induced cumulative nitrite levels | Nitrite production ([5]; single dose 100 ng/ml (S)): suppressed nitrite production only on day 2 | Nitrite production [5, 11]: suppressed nitrite production only on day 2 | Chondrocyte metabolic activity ([6]; continuous dose 100 ng/ml (C)): match the response from the untreated control condition | Chondrocyte metabolic activity ([6]; single dose 100 ng/ml (S)): not effective in rescuing chondrocyte metabolic activity or viability | Chondrocyte metabolic activity [6, 11]: failed to rescue the reduced cell metabolism and viability over the long-term; also recorded: ineffective in rescuing the reduced metabolic rate | GAG loss to media ([7]; continuous dose 100 ng/ml (C), replenished every 2 days, 16-day culture): keep the GAG loss levels down to control levels | GAG loss to media ([7]; single dose 100 ng/ml (S), first 2 days only, day 2): significantly inhibited GAG loss by day 2 | Cumulative GAG loss to media ([7]; single dose 1000 ng/ml IGF-1 (S), free or as conjugate, 16-day culture): remained ineffective in providing a prolonged effect | Decrease of MMP-13 expression [8]: 50% | Retention in cartilage / joint tissues ([2]; 24 h post-IA injection in rats): no free IGF-1 was detectable in any joint tissues | Retention in cartilage ([2]; 2 days post-IA injection in rat knees): no retention of free IGF-1 was observed in cartilage | Detection in cartilage samples [2]: no trace of free IGF-1 was detectable | Chondrocyte viability ([9]; continuous dose 100 ng/ml (C)): match the response from the untreated control condition | Chondrocyte viability ([9]; single dose 100 ng/ml (S)): not effective in rescuing chondrocyte metabolic activity or viability | Chondrocyte viability [9, 11]: failed to rescue the reduced cell metabolism and viability over the long-term; also recorded: not effective | Depth of penetration from superficial to deep zone [10]: penetrated through the full thickness of cartilage | Retention in cartilage after desorption [10]: most of the free IGF-1 desorbed out of the cartilage | Time for desorption out of the cartilage [10]: ≤ 24 h
